Drawing on US20070213301A1 (ACHILLION PHARMACEUTICALS, INC., priority 2006, published 2007), this text covers EC50 for 26 compounds.

For this experiment, the system named is HCV replicon. Description: HCV replicon replication assay (NPTII ELISA). Type of experiment: cell-based, Hepatitis C virus (Huh-7 cells). To be noted: Hepatitis C virus, Huh-7, 72 h, inhibition of HCV replicon replication in Huh-7 HCV replicon-containing cells, three days incubation, NPT level by ELISA; read-out: EC50. The method, then:
Compounds claimed herein are tested for the ability to inhibit viral replication of the Hepatitis C replicon in cultured cells in which the HCV replicon construct has been incorporated. The HCV replicon system was described by Bartenschlager, et. al (Science, 285, pp. 110-113 (1999)). The replicon system is predictive of in vivo anti-HCV activity; compounds that are active in humans uniformly evidence activity in the replicon assay.
In this assay HCV replicon containing cells are treated with different concentrations of the test compound to ascertain the ability of the test compound to suppress replication of the HCV replicon. As a positive control, HCV replicon-containing cells are treated with different concentrations of interferon alpha, a known inhibitor of HCV replication. The replicon assay system includes Neomycin Phosphotransferase (NPT) as a component of the replicon itself in order to detect the transcription of replicon gene products in the host cell. Cells in which the HCV replicon is actively replicating have high levels of NPT; the level of NPT is proportional to HCV replication. […] The NPT level of each sample is measured using a captured ELISA.
The HCV replicon contains, 5′-3′, the HCV-IRES, the neomycin phosphotransferase (neo) gene, the IRES of encephalomyocarditis virus, which directs translation of HCV sequences NS3 to NS5B, and the 3′-NTR. The sequence of the HCV replicon has been deposited in GenBank (Accession no. AJ242652).
The replicon is transfected into Huh-7 cells using standard methods such as electroporation.
The cells are then seeded onto 96-well plates at a density of 6000-7500 cells/100 microliters/well (6-7.5×10^5 cells/10 ml/plate). The plates are then incubated at 37° C. in a 5% CO2 incubator.
HCV replicon-containing cells are rinsed with once PBS once; 2 mls of trypsin are then added. Cells are incubated at 37° C. in a 5% CO2 incubator for 3-5 minutes. 10 mls of complete medium is added to stop the reaction. Cells are blown gently, put into a 15 ml tube, and spun at 1200 rpm for four minutes. The trypsin/medium solution is removed and 5 mls of medium (500 ml DMEM (high glucose)) from BRL catalog #12430-054; 50 mls 10% FBS, 5% Geneticin G418 (50 mg/ml, BRL catalog #10131-035), 5 ml MEM non-essential amino acids (100× BRL #11140-050) and 5 ml pen-strep (BRL #15140-148) is added. The cells and media are mixed carefully
Cells are plated with screening medium (500 ml DMEM (BRL #21063-029), 50 ml FBS (BRL #10082-147) and 5 ml MEM non-essential amino acid (BRL #11140-050) at 6000-7500 cells/100 μl/well of 96 well plate (6-7.5×10^5 cells/10 ml/plate). Plates are placed into 37° C. 5% CO2 incubator overnight.
The following morning, drugs (test compounds or interferon alpha) are diluted in 96 well U bottom plates with media or DMSO/media, depending on the final concentration chosen for screening. Generally for 6 concentrations of each test compounds ranging from 10 micromolar to 0.03 micromolar are applied. 100 μl of the test compound dilution is placed in wells of the 96 well plate containing the HCV replicon cells. Media without drug is added to some wells as a negative controls. DMSO is known to affect cell growth. Therefore, if drugs diluted in DMSO are used, all wells, including negative control (media only) and positive control (interferon alpha) wells, must contain the same concentration of DMSO, for single dose screening. The plates are incubated at 37° C. in a humidified 5% CO2 environment for three days.
On day four, the NTPII assay is quantitated. The medium is poured from the plates and the plates are washed once in 200 μl of PBS. The PBS is then decanted and the plates tapped in a paper towel to remove any remaining PBS. Cells are fixed in situ with 100 μl/well of pre-cooled (−20° C.) methanol:acetone (1:1) and the plates are placed at −20° C. for 30 minutes.
The fixing solution is poured from the plates and the plates allowed to air-dry completely (approximately one hour). […]
For `CCCCCOc1ccc(N(C(=O)C(=O)OC)c2nc(-c3cccnc3)cs2)cc1F` [Compound 27, methyl 2-((3-fluoro-4-(pentyloxy)phenyl)(4-(pyridin-3-yl)thiazol-2-yl)amino)-2-oxoacetate], the EC50 was less than 1000 nM.
Then `CCCCCOc1ccc(N(C(=O)C(=O)OC)c2nc(-c3cccnc3)cs2)cc1C(F)(F)F` [Compound 28, methyl 2-oxo-2-((4-(pentyloxy)-3-(trifluoromethyl)phenyl)(4-(pyridin-3-yl)thiazol-2-yl)amino)acetate], with less than 1000 nM; and `CCCCCOc1ccc(N(C(C)=O)c2nc(CNC(C)=O)cs2)cc1C(F)(F)F` [Compound 29, N-(4-(acetamidomethyl)thiazol-2-yl)-N-(4-(pentyloxy)-3-(trifluoromethyl)phenyl)acetamide], with 1000 to 10000 nM; and `CCCCCOc1ccc(N(C(=O)C(=O)OC)c2nc(C(=O)Nc3cccnc3)cs2)cc1C(F)(F)F` [Compound 30, methyl 2-oxo-2-((4-(pentyloxy)-3-(trifluoromethyl)phenyl)(4-(pyridin-3-ylcarbamoyl)thiazol-2-yl)amino)acetate], with less than 1000 nM.
With `CCCCCOc1ccc(N(C(=O)OC)c2nc(-c3cccnc3)cs2)cc1C(F)(F)F` [Compound 31, methyl 4-(pentyloxy)-3-(trifluoromethyl)phenyl(4-(pyridin-3-yl)thiazol-2-yl)carbamate], the 50% effective concentration (EC50) is less than 1000 nM.
Consider `CCCCCOc1ccc(N(C(=O)C2CCCCC2)c2nc(-c3cccnc3)cs2)cc1C(F)(F)F` [Compound 32, N-(4-(pentyloxy)-3-(trifluoromethyl)phenyl)-N-(4-(pyridin-3-yl)thiazol-2-yl)cyclohexanecarboxamide], for which the EC50 was less than 1000 nM.
Take `CCCCCOc1ccc(N(C(=O)COC(C)=O)c2nc(-c3cccnc3)cs2)cc1C(F)(F)F` [Compound 33, 2-oxo-2-((4-(pentyloxy)-3-(trifluoromethyl)phenyl)(4-(pyridin-3-yl)thiazol-2-yl)amino)ethyl acetate]: the half-maximal effective concentration (EC50) was less than 1000 nM.
As for `CCCCCOc1ccc(N(C(=O)c2cc(C)on2)c2nc(-c3cccnc3)cs2)cc1C(F)(F)F` [Compound 34, 5-methyl-N-(4-(pentyloxy)-3-(trifluoromethyl)phenyl)-N-(4-(pyridin-3-yl)thiazol-2-yl)isoxazole-3-carboxamide], the half-maximal effective concentration (EC50) was less than 1000 nM.
In the case of `CCCCCOc1ccc(N(C(=O)C(=O)OC)c2nc(-c3ccncc3)cs2)cc1C(F)(F)F` [Compound 35, methyl 2-oxo-2-((4-(pentyloxy)-3-(trifluoromethyl)phenyl)(4-(pyridin-4-yl)thiazol-2-yl)amino)acetate], the EC50 is less than 1000 nM.
For the compound `CCCCCOc1ccc(N(C(=O)OC)c2nc(-c3ccncc3)cs2)cc1C(F)(F)F` [Compound 36, methyl 4-(pentyloxy)-3-(trifluoromethyl)phenyl(4-(pyridin-4-yl)thiazol-2-yl)carbamate], the half-maximal effective concentration (EC50) is less than 1000 nM.
Consider `CCCCCOc1ccc(N(C(=O)C(=O)OC)c2nc(-c3ccc(F)cc3F)cs2)cc1C(F)(F)F` [Compound 37, methyl 2-((4-(2,4-difluorophenyl)thiazol-2-yl)(4-(pentyloxy)-3-(trifluoromethyl)phenyl)amino)-2-oxoacetate], for which the concentration giving a half-maximal response (EC50) was less than 1000 nM.
In the case of `CCCCCOc1ccc(N(C(=O)C(=O)OC)c2nc(-c3ccc(F)cc3)cs2)cc1C(F)(F)F` [Compound 38, methyl 2-((4-(4-fluorophenyl)thiazol-2-yl)(4-(pentyloxy)-3-(trifluoromethyl)phenyl)amino)-2-oxoacetate], the EC50 is less than 1000 nM.
Consider `CCCCCCCCc1ccc(N(C(=O)C(=O)OC)c2nc(-c3cccnc3)cs2)cc1` [Compound 39, methyl 2-((4-octylphenyl)(4-(pyridin-3-yl)thiazol-2-yl)amino)-2-oxoacetate], for which the EC50 is less than 1000 nM.
For `CCCCCCCOc1ccc(N(C(=O)C(=O)OC)c2nc(-c3cccnc3)cs2)cc1` [Compound 40, methyl 2-((4-(heptyloxy)phenyl)(4-(pyridin-3-yl)thiazol-2-yl)amino)-2-oxoacetate], the EC50 was less than 1000 nM.
As to `CCCCCOc1ccc(N(C(=O)CN(C)C)c2nc(-c3cccnc3)cs2)cc1C(F)(F)F` [Compound 41, 2-(dimethylamino)-N-(4-(pentyloxy)-3-(trifluoromethyl)phenyl)-N-(4-(pyridin-3-yl)thiazol-2-yl)acetamide], the EC50 is less than 1000 nM.
In the case of `CCCCCOc1ccc(N(C(=O)CC(=O)OC)c2nc(-c3ccc(F)cc3)cs2)cc1F` [Compound 42, methyl 3-((3-fluoro-4-(pentyloxy)phenyl)(4-(4-fluorophenyl)thiazol-2-yl)amino)-3-oxopropanoate], the EC50 was less than 1000 nM.
As for `CCCCCOc1ccc(N(C(=O)CC(=O)OC)c2nc(-c3ccc(F)cc3)cs2)cc1C(F)(F)F` [Compound 43, methyl 3-((4-(4-fluorophenyl)thiazol-2-yl)(4-(pentyloxy)-3-(trifluoromethyl)phenyl)amino)-3-oxopropanoate], the figure is less than 1000 nM; as for `CCCCCCCCOc1ccc(N(C(=O)CC(=O)OC)c2nc(-c3ccc(F)cc3)cs2)cc1` [Compound 44, methyl 3-((4-(4-fluorophenyl)thiazol-2-yl)(4-(octyloxy)phenyl)amino)-3-oxopropanoate], less than 1000 nM; as for `CCCCCOc1ccc(N(C(=O)C(=O)OC)c2nc(-c3ccc(F)cc3)cs2)cc1F` [Compound 45, methyl 2-((3-fluoro-4-(pentyloxy)phenyl)(4-(4-fluorophenyl)thiazol-2-yl)amino)-2-oxoacetate], less than 1000 nM.
Then `CCCCCOc1ccc(N(C(=O)OC)c2nc(-c3ccc(F)cc3)cs2)cc1F` [Compound 46, methyl 3-fluoro-4-(pentyloxy)phenyl(4-(4-fluorophenyl)thiazol-2-yl)carbamate], with 1000 to 10000 nM; and `CCCCCOc1ccc(N(C(=O)OC)c2nc(-c3ccc(F)cc3)cs2)cc1C(F)(F)F` [Compound 47, methyl 4-(4-fluorophenyl)thiazol-2-yl(4-(pentyloxy)-3-(trifluoromethyl)phenyl)carbamate], with less than 1000 nM; and `CCCCCCCCOc1ccc(N(C(=O)OC)c2nc(-c3ccc(F)cc3)cs2)cc1` [Compound 48, methyl 4-(4-fluorophenyl)thiazol-2-yl(4-(octyloxy)phenyl)carbamate], with 1000 to 10000 nM.
Then `CCCCCOc1ccc(N(C(N)=O)c2nc(-c3cccnc3)cs2)cc1C(F)(F)F` [Compound 49, 1-(4-(pentyloxy)-3-(trifluoromethyl)phenyl)-1-(4-(pyridin-3-yl)thiazol-2-yl)urea], with less than 1000 nM; and `CCCCCOc1ccc(N(C=O)c2nc(-c3cccnc3)cs2)cc1C(F)(F)F` [Compound 50, N-(4-(pentyloxy)-3-(trifluoromethyl)phenyl)-N-(4-(pyridin-3-yl)thiazol-2-yl)formamide], with less than 1000 nM; and `CCCCCN(C)c1ccc(N(C(=O)COC(C)=O)c2nc(-c3cccnc3)cs2)cc1C(F)(F)F` [Compound 51, 2-((4-(methyl(pentyl)amino)-3-(trifluoromethyl)phenyl)(4-(pyridin-3-yl)thiazol-2-yl)amino)-2-oxoethyl acetate], with less than 1000 nM.
As for `CCCCCN(C)c1ccc(N(C(=O)c2cc(C)on2)c2nc(-c3cccnc3)cs2)cc1C(F)(F)F` [Compound 52, 5-methyl-N-(4-(methyl(pentyl)amino)-3-(trifluoromethyl)phenyl)-N-(4-(pyridin-3-yl)thiazol-2-yl)isoxazole-3-carboxamide], the EC50 is less than 1000 nM.
